Test results published in patent US8076486B2, “Heteroaryl-substituted arylaminopyridine derivatives as MEK inhibitors” (Merck Serono S.A., priority 2006, dated 2011).

Assays:
[1] = test system: A375 Xenograft; assay: Tumor Growth Inhibition in A375 Xenograft Studies (Malignant Melanoma Model); assay type: in vivo, nude (nu/nu) mice; details: A375 xenograft in male nude mice, to Day 14
Procedure: In vivo Efficacy Evaluation: Tumor Growth Inhibition in A375 Xenograft Studies (Malignant Melanoma Model)
Male nude (nu/nu) mice (100 total, 24-26 g body wt) were purchased from Charles River Laboratories. Animals were injected subcutaneously above the right foreleg with 5×10^6 A375 cells in 100 ul of PBS. Tumors were measured with calipers 4, 7, 11 and 14 days after cells were implanted. Tumor length (l) and width (w) were measured and tumor volume was calculated with the equation l*w^2/2. At 16 days after cancer cells were implanted, tumors had reached an average volume of 93 mm^3, at which time the animals were sorted into 6 groups so that each group had the same mean tumor volume. The vehicle used for dosing the compound in suspension was 10% Tween 80 in water.
Treatments began on the afternoon of the 16th day after cancer cell injections, which was designated as Day 0. Tumor volume and body weight was measured for each animal 3 times per week until Day 14. On Day 14, all animals were euthanized, tumors removed and weighted.

[2] = test system: Murine colon C26 cells; assay: Tumor Cell Proliferation Assay (ATP Lite), C26; assay type: cell-based; details: Mus musculus, 96 h, 4 days, ATPlite
Procedure: (§1) Assay 2: Tumor Cell Proliferation Assays (ATP Lite)
(§2) Murine colon C26 (1500 cells/well), human melanoma A375 (2000 cells/well), or human pancreatic MiaPaCa-2 cells (2000 cells/well) were plated in white, 96 well plates (Corning) in growth media (DMEM with 10% fetal bovine serum, 2 mM glutamine for C26 and MiaPaCa-2, and RPMI with 10% fetal bovine serum, 2 mM glutamine for A375) and cultured overnight at 37° C. in a humidified, 5% CO2 incubator. Inhibitors were serially diluted in 100% DMSO and subsequently added to the cells, in growth media, to reach a final concentration of 0.25% DMSO. The cells were incubated for 4 days in the presence of the test compounds and the proliferation was quantitated using the ATPlite cell proliferation kit (Packard).

[3] = target: human MEK1 (Homo sapiens, UniProt Q02750, S218E/S222E); assay: MEK-1 Enzyme Assay (LANCE-HTRF); assay type: biochemical; details: MEK-1 EE, ERK-2K52A substrate, 9 uM ATP, 1.5 hrs
Sequence of human MEK1 (Q02750 whole entry S218E/S222E): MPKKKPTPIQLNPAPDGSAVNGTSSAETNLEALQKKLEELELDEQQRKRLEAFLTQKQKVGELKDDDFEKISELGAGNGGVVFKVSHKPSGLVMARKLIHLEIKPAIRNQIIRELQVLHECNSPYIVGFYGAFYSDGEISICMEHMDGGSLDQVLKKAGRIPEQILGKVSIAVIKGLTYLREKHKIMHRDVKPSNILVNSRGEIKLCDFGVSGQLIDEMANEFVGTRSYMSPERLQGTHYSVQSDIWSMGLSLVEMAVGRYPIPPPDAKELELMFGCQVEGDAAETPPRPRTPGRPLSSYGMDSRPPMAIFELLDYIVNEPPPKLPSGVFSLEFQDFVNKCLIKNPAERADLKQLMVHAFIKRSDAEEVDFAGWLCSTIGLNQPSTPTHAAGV
Procedure: Assay 1: MEK-1 Enzyme Assay (LANCE-HTRF)
Inhibition of human MEK1 kinase activity was monitored with a homogenous, fluorescence-based assay. The assay uses time resolved fluorescence resonance energy transfer to probe for phosphorylation of ERK1 by MEK1. The detailed procedure is described in the following:
Constititutively active MEK-1 EE (150 ng/well) and ERK-2K52A (110 ng/well) were incubated in black, 384 well Optiplates (Perkin Elmer) for 1.5 hrs at room temperature, in the presence of increasing concentrations of inhibitors. The total reaction volume was 50 ul. The inhibitors were serial diluted in kinase buffer (9 uM ATP, 50 mM Tris-Hcl pH 8.0, 10 mM MgCl2, 1 mM DTT and 100 uM Na3VO4), to a final concentration of 1% DMSO. At the end of the incubation, the enzyme reaction was quenched by adding 50 ul of assay buffer containing 50 mM Tris-Hcl, 50 mM EDTA, 0.1% BSA and a mixture of 1.25 ug/mL europium labeled anti-phosphotyrosine mAb (Perkin Elmer) and 5 ug/mL of allophycocyanin labeled anti-GST antibody (CIS-US). Plates were agitated on a plate shaker for 30 minutes and the phosphorylation of the ERK-2K52A substrate was measured by homogeneous time resolved fluorescence (HTRF) at 340 nm excitation and […] emission filters on the VICTOR V fluorescence plate reader. Phosphorylation is expressed as a ratio of 665 nM signal×10,000/615 nM signal. To assess the inhibitory potential of the compounds, IC50-values were determined.

[4] = test system: human melanoma A375 cells; assay: Tumor Cell Proliferation Assay (ATP Lite), A375; assay type: cell-based; details: A-375, 96 h, 4 days, ATPlite
Procedure: as §1, §2

[5] = test system: human pancreatic MiaPaCa-2 cells; assay: Tumor Cell Proliferation Assay (ATP Lite), MiaPaCa-2; assay type: cell-based; details: MIA PaCa-2, 96 h, 4 days, ATPlite, read-out: MiaPaCa2 cell proliferation IC50
Procedure: as §1, §2

IC50 [2] [nM] | IC50 [3] [nM] | IC50 [4] [nM] | IC50 [5] [nM] | SMILES | effect on tumor growth ([1]; dose of 0.5 mg/kg) | effect on tumor growth ([1]; dose of 10 mg/kg)
≤ 3000 | ≤ 3000 | ≤ 3000 | ≤ 3000 | Nc1nnc(-c2ccncc2Nc2ccc(I)cc2F)o1 [Example 2, [4-(5-Amino-[1,3,4]oxadiazol-2-yl)-pyridin-3-yl]-(2-fluoro-4-iodo-phenyl)-amine] | significant tumor growth inhibition | tumor regression
≤ 3000 | ≤ 3000 | ≤ 3000 | ≤ 3000 | CCOC(=O)C(C)Nc1nnc(-c2ccncc2Nc2ccc(I)cc2F)o1 (stereo not shown) [Example 52, 2-{5-[3-(2-Fluoro-4-iodo-phenylamino)-pyridin-4-yl]-[1,3,4]oxadiazol-2-ylamino}-propionic acid ethyl ester] | – | –
≤ 3000 | ≤ 3000 | ≤ 3000 | 3000 to 25000 | CC(Nc1nnc(-c2ccncc2Nc2ccc(I)cc2F)o1)C(=O)O (stereo not shown) [Example 53, 2-{5-[3-(2-Fluoro-4-iodo-phenylamino)-pyridin-4-yl]-[1,3,4]oxadiazol-2-ylamino}-propionic acid] | – | –
≤ 3000 | ≤ 3000 | ≤ 3000 | ≤ 3000 | Nc1nnc(-c2ccncc2Nc2ccc(I)cc2F)s1 [Example 54, [4-(5-Amino-[1,3,4]thiadiazol-2-yl)-pyridin-3-yl]-(2-fluoro-4-iodo-phenyl)-amine] | – | –
≤ 3000 | ≤ 3000 | ≤ 3000 | ≤ 3000 | Cn1c(-c2ccncc2Nc2ccc(I)cc2F)n[nH]c1=O [Example 55, 5-[3-(2-Fluoro-4-iodo-phenylamino)-pyridin-4-yl]-4-methyl-2,4-dihydro-[1,2,4]triazol-3-one] | – | –
> 25000 | ≤ 3000 | 3000 to 25000 | 3000 to 25000 | Fc1cc(I)ccc1Nc1cnccc1-c1ncon1 [Example 56, (2-Fluoro-4-iodo-phenyl)-(4-[1,2,4]oxadiazol-3-yl-pyridin-3-yl)-amine] | – | –
≤ 3000 | ≤ 3000 | ≤ 3000 | ≤ 3000 | Nc1nnc(-c2c(Nc3ccc(I)cc3F)cncc2-c2ccccc2Cl)o1 [Example 57, [4-(5-Amino-[1,3,4]oxadiazol-2-yl)-5-(2-chloro-phenyl)-pyridin-3-yl]-(2-fluoro-4-iodo-phenyl)-amine] | – | –
≤ 3000 | ≤ 3000 | ≤ 3000 | ≤ 3000 | Nc1nnc(-c2c(Nc3ccc(I)cc3F)cncc2-c2ccccc2F)o1 [Example 58, [4-(5-Amino-[1,3,4]oxadiazol-2-yl)-5-(2-fluoro-phenyl)-pyridin-3-yl]-(2-fluoro-4-iodo-phenyl)-amine] | – | –
≤ 3000 | ≤ 3000 | ≤ 3000 | ≤ 3000 | Fc1cc(I)ccc1Nc1cncc(-c2ccccc2F)c1-c1c[nH]nn1 [Example 60, (2-Fluoro-4-iodo-phenyl)-[5-(2-fluoro-phenyl)-4-(1H-[1,2,3]triazol-4-yl)-pyridin-3-yl]-amine] | – | –
3000 to 25000 | ≤ 3000 | ≤ 3000 | ≤ 3000 | Fc1cc(I)ccc1Nc1cnccc1-c1ccn[nH]1 [Example 61, (2-Fluoro-4-iodo-phenyl)-[4-(2H-pyrazol-3-yl)-pyridin-3-yl]-amine] | – | –
> 25000 | ≤ 3000 | > 25000 | > 25000 | Fc1cc(I)ccc1Nc1cnccc1-c1nnn[nH]1 [Example 62, N-(2-fluoro-4-iodophenyl)-4-(1H-tetrazol-5-yl)pyridin-3-amine] | – | –
≤ 3000 | ≤ 3000 | ≤ 3000 | ≤ 3000 | Fc1cc(I)ccc1Nc1cnccc1-c1c[nH]nn1 [Example 64, N-(2-fluoro-4-iodophenyl)-4-(1H-1,2,3-triazol-4-yl)pyridin-3-amine] | – | –
≤ 3000 | ≤ 3000 | ≤ 3000 | ≤ 3000 | Fc1cc(I)ccc1Nc1cnccc1-c1cn[nH]c1 [Example 65, (2-Fluoro-4-iodo-phenyl)-[4-(1H-pyrazol-4-yl)-pyridin-3-yl]-amine] | – | –

SMILES | IC50 [2] [nM] | IC50 [3] [nM] | IC50 [4] [nM] | IC50 [5] [nM] | effect on tumor growth ([1]; dose of 0.5 mg/kg) | effect on tumor growth ([1]; dose of 10 mg/kg)
C[Si](C)(C)c1[nH]nnc1-c1ccncc1Nc1ccc(I)cc1F [Example 63, N-(2-fluoro-4-iodophenyl)-4-[5-(trimethylsilyl)-1H-1,2,3-triazol-4-yl]pyridin-3-amine] | ≤ 3000 | ≤ 3000 | ≤ 3000 | ≤ 3000 | – | –
